In patent publication US4355026A, “4-Demethoxy,11-deoxy anthracycline derivatives” (priority 1980, dated 1982):
Values after ≈ are worked out from the molar mass of the structure shown. Like-named read-outs stand apart in the source and are kept apart here.

What was measured:
L1210 leukemia cells [1] = test: Inhibitory effect on growth of L1210 cultivated leukemic cells of mice; format: cell-based; conditions: Mus musculus
Experimental: (§1) A. Inhibitory Effect on Growth, DNA Synthesis and RNA Synthesis of L1210 Cultivated Leukemic Cells of Mice
For example, L1210 cells were inoculated in a concentration of 5×10^4 cells/ml in an RPMI 1640 culture medium (Roswell Park Memorial Institute 1640) containing 20% calf serum and, simultaneously, representative compounds of the present invention were added in a concentration of 0.1 and 0.5 μg/ml. The cells were cultivated in a CO2 generator at 37° C. The 50% growth inhibitory concentration with respect to a control group was then determined.

[2] = system: L1210 leukemia cells, DNA synthesis; test: Inhibition of DNA synthesis (14C-thymidine incorporation) of L1210 cultivated leukemic cells; format: cell-based; conditions: Mus musculus, L1210, 1 h; for IC50: read-out: IC50 DNA synthesis; for IC90: read-out: IC90 DNA synthesis
Experimental: as §1
(§2) Separately, the above L1210 cultivated cells were suspended in a concentration of 5×10^5 cells/ml in an RPMI 1640 medium containing 10% calf serum and cultivated for 1 to 2 hours in a CO2 incubator at 37° C. Then, representative test compounds were added in various concentrations, and 15 minutes later, ^14 C-uridine (0.05 μCi/ml) or ^14 C-thymidine (0.05 μCi/ml) were added. The cells were incubated at 37° C. for 60 minutes. A 10% aqueous trichloroacetic acid solution was added to the incubation medium to stop the reaction and simultaneously precipitate acid-insoluble matter. The acid-insoluble matter was washed three times with a 5 to 10% aqueous solution of trichloroacetic acid and then dissolved in formic acid. The radioactivity of the acid-insoluble matter was measured. From the ratio of incorporated radiation to that of a control group, the concentrations which inhibited radiation by 10%, 50% and 90% respectively were measured.

[3] = system: L1210 leukemia cells, RNA synthesis; test: Inhibition of RNA synthesis (14C-uridine incorporation) of L1210 cultivated leukemic cells; format: cell-based; conditions: Mus musculus, L1210, 1 h; for IC50: read-out: IC50 RNA synthesis; for IC90: read-out: IC90 RNA synthesis
Experimental: as §1, §2

L1210 leukemia cells [4] = test: Antitumor activity on CDFI mouse leukemia induced by mouse L1210 leukemia cells; format: in vivo, CDFI mice; parameters: key to Toxicity: *: Toxicity-; conditions: intraperitoneal, 10 consecutive days
Experimental: B. Antitumor Activity on CDFI Mouse Leukemia Induced by Mouse L1210 Leukemia cells
L1210 leukemia cells of mice were intraperitoneally transplanted in an amount of 1×10^5 cells/mouse in CDFI mice. Starting 24 hours after the transplantation, each of the test compounds was intraperitoneally administered to the mice for 10 consecutive days. the survival rate (T/C, %) was calculated in comparison with a control group (to which physiological saline was administered).

[5] = L1210, 24 h, 1 day later, RPMI 1640, 20% calf serum, 37° C., read-out: IC50 growth, 1 day later
[6] = L1210, 48 h, 2 days later, RPMI 1640, 20% calf serum, 37° C., read-out: IC50 growth, 2 days later
[7] = 14C-thymidine, 60 minutes, 37° C.
[8] = 90% inhibition, 14C-thymidine, 60 minutes, 37° C.
[9] = 14C-uridine, 60 minutes, 37° C.
[10] = 90% inhibition, 14C-uridine, 60 minutes, 37° C.
[11] = L1210, 24 h, read-out: IC50 growth, 1 day later
[12] = L1210, 48 h, read-out: IC50 growth, 2 days later

| SMILES | IC50 (L1210 leukemia cells [1]; [5]) | IC50 (L1210 leukemia cells [1]; [6]) | IC50 [2, 7] | IC90 [2, 8] | IC50 [3, 9] | IC90 [3, 10] | IC50 (L1210 leukemia cells [1]; [11]) | IC50 (L1210 leukemia cells [1]; [12]) | IC50 [2] | IC90 [2] | IC50 [3] | IC90 [3] | Survival rate (T/C, %) (L1210 leukemia cells [4]; 0.15 mg/kg/day) | Survival rate (T/C, %) (L1210 leukemia cells [4]; 0.3 mg/kg/day) | Survival rate (T/C, %) (L1210 leukemia cells [4]; 0.6 mg/kg/day) | Survival rate (T/C, %) (L1210 leukemia cells [4]; 1.25 mg/kg/day) | Survival rate (T/C, %) (L1210 leukemia cells [4]; 2.5 mg/kg/day) | other results |
| --- | --- | --- | --- | --- | --- | --- | --- | --- | --- | --- | --- | --- | --- | --- | --- | --- | --- | --- |
| C[C@@H]1O[C@@H](O[C@H]2C[C@](O)(C(=O)CO)Cc3c(O)c4c(c(O)c32)C(=O)c2ccccc2C4=O)C[C@H](N)[C@@H]1O [4-Demethoxy-adriamycin, reference compound] | 0.02 µg/mL (≈ 0.0389 µM) | 0.006 µg/mL (≈ 0.0117 µM) | 1.6 µg/mL (≈ 3.12 µM) | 10 µg/mL (≈ 19.5 µM) | 1.2 µg/mL (≈ 2.34 µM) | 6 µg/mL (≈ 11.7 µM) | – | – | – | – | – | – | – | – | – | – | – | – |
| COc1cccc2c1C(=O)c1c(O)c3c(c(O)c1C2=O)C[C@@](O)(C(=O)CO)C[C@@H]3O[C@H]1C[C@H](N)[C@H](O)[C@H](C)O1 [Adriamycin] | – | – | – | – | – | – | 0.05 µg/mL (≈ 0.092 µM) | 0.03 µg/mL (≈ 0.0552 µM) | 1.65 µg/mL (≈ 3.04 µM) | 4.5 µg/mL (≈ 8.28 µM) | 0.68 µg/mL (≈ 1.25 µM) | 6.5 µg/mL (≈ 12 µM) | 130% | 147% | 239% | 272% | 351% | Survival rate (T/C, %) (L1210 leukemia cells [4]; 5 mg/kg/day): 189%; Toxicity (L1210 leukemia cells [4]; 5 mg/kg/day): * |
| COc1cccc2c1C(=O)c1c(O)c3c(c(O)c1C2=O)C[C@@](O)(C(C)=O)C[C@@H]3O[C@H]1C[C@H](N)[C@H](O)[C@H](C)O1 [Daunomycin, reference compound] | – | – | – | – | – | – | 0.049 µg/mL (≈ 0.0929 µM) | 0.036 µg/mL (≈ 0.0682 µM) | 0.3 µg/mL (≈ 0.569 µM) | 1.8 µg/mL (≈ 3.41 µM) | 0.18 µg/mL (≈ 0.341 µM) | 1.8 µg/mL (≈ 3.41 µM) | 118% | 132% | 145% | 191% | 138% | Survival, in words (dead through toxicity) (L1210 leukemia cells [4]; 5 mg/kg/day): dead |

The next lines start with results.

| IC50 (L1210 leukemia cells [1]; [5]) | IC50 (L1210 leukemia cells [1]; [6]) | IC50 [2, 7] | IC90 [2, 8] | IC50 [3, 9] | IC90 [3, 10] | SMILES | IC50 (L1210 leukemia cells [1]; [11]) | IC50 (L1210 leukemia cells [1]; [12]) | IC50 [2] | IC90 [2] | IC50 [3] | IC90 [3] | Survival rate (T/C, %) (L1210 leukemia cells [4]; 0.15 mg/kg/day) | Survival rate (T/C, %) (L1210 leukemia cells [4]; 0.3 mg/kg/day) | Survival rate (T/C, %) (L1210 leukemia cells [4]; 0.6 mg/kg/day) | Survival rate (T/C, %) (L1210 leukemia cells [4]; 1.25 mg/kg/day) | Survival rate (T/C, %) (L1210 leukemia cells [4]; 2.5 mg/kg/day) | other results |
| --- | --- | --- | --- | --- | --- | --- | --- | --- | --- | --- | --- | --- | --- | --- | --- | --- | --- | --- |
| 0.01 µg/mL (≈ 0.0201 µM) | 0.005 µg/mL (≈ 0.0101 µM) | 0.08 µg/mL (≈ 0.161 µM) | 1.2 µg/mL (≈ 2.41 µM) | 0.14 µg/mL (≈ 0.281 µM) | 1.4 µg/mL (≈ 2.81 µM) | CC(=O)[C@]1(O)Cc2c(O)c3c(c(O)c2[C@@H](O[C@H]2C[C@H](N)[C@H](O)[C@H](C)O2)C1)C(=O)c1ccccc1C3=O [4-Demethoxy-daunomycin, reference compound] | – | – | – | – | – | – | – | – | – | – | – | – |
| 0.005 µg/mL (≈ 0.00948 µM) | – | – | – | – | – | COc1cccc2c1C(=O)c1c(cc3c(c1O)[C@@H](O[C@H]1C[C@H](N)[C@H](O)[C@H](C)O1)C[C@](O)(C(=O)CO)C3)C2=O [11-Deoxy-adriamycin, reference compound] | – | – | – | – | – | – | – | – | – | – | – | – |
| 0.05 µg/mL (≈ 0.0977 µM) | – | – | – | – | – | COc1cccc2c1C(=O)c1c(cc3c(c1O)[C@@H](O[C@H]1C[C@H](N)[C@H](O)[C@H](C)O1)C[C@](O)(C(C)=O)C3)C2=O [11-deoxy-daunomycin, reference compound] | – | – | – | – | – | – | – | – | – | – | – | – |
